Data reported in patent US8106236B2, “Triaryl compounds and derivates thereof” (Ortho-McNeil Pharmaceutical, Inc., priority 2006, dated 2012).

Key:
Aβ42 [1] = assay: In vivo Aβ42 lowering, mouse; details: oral dose 30 mpk at 4 hr time point, read-out: Mouse Efficacy % Lowering Aβ 42
From the text: (§1) To determine whether acute administration of an Aβ42 lowering agent would reduce Aβ42 levels in vivo, non-transgenic rodents, e.g. mice or rats can be used. Alternatively, two to three month old Tg2576 mice expressing APP695 containing the “Swedish” variant can be used or a transgenic mouse model developed by Dr. Fred Van Leuven (K.U.Leuven, Belgium) and co-workers, with neuron-specific expression of a clinical mutant of the human amyloid precursor protein [V717I] (Moechars et al., 1999 J. Biol. Chem. 274, 6483). […] Animals of this age have high levels of Aβ in the brain but no detectable Aβ deposition. Mice treated with the Aβ42 lowering agent will be examined and compared to those untreated or treated with vehicle and brain levels of soluble Aβ42 and total Aβ would be quantitated by standard techniques, for example, using ELISA. Treatment periods may vary from hours to days and will be adjusted based on the results of the Aβ42 lowering once a time course of onset of effect can be established.
(§2) A typical protocol for measuring Aβ42 lowering in vivo is shown but it is only one of many variations that could be used to optimize the levels of detectable Aβ. For example, aliquots of compounds can be dissolved in DMSO (volume equal to 1/10th of the final formulation volume), vortexed and further diluted (1:10) with a 10% (w/v) hydroxypropyl β cyclodextrin (HBC, Aldrich, Ref N° 33,260-7) solution in PBS, where after they are sonicated for 20 seconds.
(§3) Aβ42 lowering agents may be administered as a single oral dose given three to four hours before sacrifice and analysis or alternatively could be given over a course of days and the animals sacrificed three to four hours after the final dose is given.
(§4) Blood is collected at sacrifice. The blood collection is performed via a heart puncture during anesthesia with a mixture of Ketalar (Ketamin), Rompun (Xylazin 2%) and Atropin (2:1:1) and collected in EDTA treated collection tubes. Blood is centrifuged at 4000 g for 5 minutes at 4° C. and the plasma recovered for analysis.
(§5) The mice are anaesthetized with a mixture of Ketalar (Ketamin), Rompun (Xylazin 2%) and Atropin (2:1:1) and flushed trans-cardially with physiological serum at 4° C.
(§6) The brain is removed from the cranium and hindbrain and forebrain are separated with a cut in the coronal/frontal plane. The cerebellum is removed. The forebrain is divided evenly into left and right hemisphere by using a midline sagital cut.
(§7) One hemisphere is immediately immersed in liquid nitrogen and stored at −70° C. until homogenization for biochemical assays.
(§8) Brains are homogenized using a Potter, a glass tube (detergent free, 2 cm^3) and a mechanical homogenizer (650 rpm). A volume of 6.5×½ brain weight of freshly prepared 20 mM Tris/HCl buffer (pH 8.5) with Proteinase Inhibitors (1 tablet per 50 ml Tris/HCl buffer, Complete™, Roche, Mannheim, Germany) is used as homogenization buffer.
(§9) Samples are transferred from −70° C. into a sample holder with liquid nitrogen and each individual sample is pre-warmed by incubation on the bench for a few seconds prior to homogenization. The homogenates are collected in Beckman centrifuge tubes TLX and collected on ice prior to centrifugation. Between two samples, the Potter and the glass tube are rinsed carefully with distilled water without detergents and dried with absorption paper.
(§10) Samples are centrifuged in a pre-cooled ultracentrifuge (Beckman, Mannheim, Germany) for 1 hour and 20 minutes at 48000 rpm (135.000×g) at 4° C. The supernatant (soluble fraction containing secreted APP and amyloid peptides) is separated from the pellet (membrane fraction containing membrane-bound APP-fragments and plaque-associated amyloid peptides in case of aged mice).
(§11) Small reversed phase columns (C18-Sep-Pack Vac 3 cc cartridges, Waters, Mass., MA) are mounted on a vacuum system and washed with 80% acetonitrile in 0.1% Trifluoroacetic acid (A-TFA) followed with 0.1% TFA twice. […]

Aβ42 [2] = assay: In vivo Aβ42 lowering, rat; details: oral dose 30 mpk at 4 hr time point
From the text: as §1, §2, §3, §4, §5, §6, §7, §8, §9, §10, §11

Which results are given for `CC(C)CC(C(=O)O)c1cc(-c2ccc(C(F)(F)F)cc2)cc(-c2cc(F)c(F)c(F)c2)c1` (stereo not drawn) [Compound 14, 4-Methyl-2-(3,4,5-trifluoro-4″-trifluoromethyl-[1,1′;3′,1″]terphenyl-5′-yl)-pentanoic acid]?
inhibition in vivo at 30 mg/kg (Aβ42 [1]): 58%; Rat Efficacy % Lowering Aβ 42 (Aβ42 [2]): 20%

How did the inhibition in vivo at 30 mg/kg (Aβ42 [1]) turn out when `CC(C)CC(C(=O)O)c1cc(-c2ccc(OC(F)(F)F)cc2)cc(-c2ccc(C(F)(F)F)cc2)c1` (stereo not drawn) [Compound 20, 4-Methyl-2-(4-trifluoromethoxy-4″-trifluoromethyl-[1,1′;3′,1″]terphenyl-5′-yl)-pentanoic acid] was run?
The inhibition in vivo at 30 mg/kg was 50%.

What about the “Rat Efficacy % Lowering Aβ 42” value (Aβ42 [2]) of the same compound?
The value was 20%.

With `CC(C)C[C@@H](C(=O)O)c1cc(-c2ccc(C(F)(F)F)cc2)cc(-c2ccc(C(F)(F)F)cc2)c1` [Compound 39, (R)-2-(4,4″-Bis-trifluoromethyl-[1,1′;3′,1″]terphenyl-5′-yl)-4-methyl-pentanoic acid] as the compound, how does the inhibition in vivo at 30 mg/kg (Aβ42 [1]) read?
Its inhibition in vivo at 30 mg/kg is 50%.

And the “Rat Efficacy % Lowering Aβ 42” value (Aβ42 [2])?
Its value is 27%.

With `CC(C)C[C@H](C(=O)O)c1cc(-c2ccc(C(F)(F)F)cc2)cc(-c2ccc(C(F)(F)F)cc2)c1` [Compound 40, (S)-2-(4,4″-Bis-trifluoromethyl-[1,1′;3′,1″]terphenyl-5′-yl)-4-methyl-pentanoic acid] as the compound, how does the inhibition in vivo at 30 mg/kg (Aβ42 [1]) read?
Its inhibition in vivo at 30 mg/kg is 40%.

And the “Rat Efficacy % Lowering Aβ 42” value (Aβ42 [2])?
The value was 40%.

Which results are given for `CC(C)C[C@@H](C(=O)O)c1cc(-c2ccc(C(F)(F)F)cc2)cc(-c2cc(C(F)(F)F)cc(C(F)(F)F)c2)c1` [Compound 44, (R)-4-Methyl-2-(3,5,4″-tris-trifluoromethyl-[1,1′;3′,1″]terphenyl-5′-yl)-pentanoic acid]?
inhibition in vivo at 30 mg/kg (Aβ42 [1]): 40%; Rat Efficacy % Lowering Aβ 42 (Aβ42 [2]): −10%

What does the source list for `CC(C)C[C@H](C(=O)O)c1cc(-c2ccc(C(F)(F)F)cc2)cc(-c2ccc(Cl)c(F)c2)c1` [Compound 50, (S)-2-(4-Chloro-3-fluoro-4″-trifluoromethyl-[1,1′;3′,1″]terphenyl-5′-yl)-4-methyl-pentanoic acid]?
inhibition in vivo at 30 mg/kg (Aβ42 [1]): 48%; Rat Efficacy % Lowering Aβ 42 (Aβ42 [2]): 28%
